≈ marks a conversion by molar mass, not a printed value. Like-named read-outs stand apart in the source and are kept apart here.
Tests used:
T. foetus = experiment: In vitro anti-Trichomonas foetus activity (50% inhibition of growth); format: cell-based, Trichomonas foetus KV1; conditions: for IC50: Tritrichomonas foetus, read-out: Anti-T. foetus ED50
Experimental: The activity of these compounds against Giardia lamblia and Trichomonas foetus are shown by the following test:
(§1) About 1.0-2.0 ml of a nutrient medium, for example, the modified Diamond's TPS medium at pH 7.05, together with about 10% by volume of heat-inactiviated serum and about 1% by volume of antibiotic-antimycotic solution is placed in each well of a multiwell plate. To this mixture, an aliquot of a suspension of G. lamblia cells containing about 10^6 organisms is added. Subsequently, each well is inoculated with a known concentration of one of the active compounds. The multiwell plate containing the individual culture samples is incubated under anaerobic conditions at about 37° C. for about 16-24 hrs. The number of viable cells remaining in each well are then counted, such as with a hemacytometer. The percentage of survival is determined by comparison with controls inoculated with DMSO (dimethylsulfoxide) and the effective concentration (in parts per million) for 50% inhibition of growth (ED50) is determined. It is established that the lower the number of the value of ED50, the higher the activity of the active compound.
(§2) In each well of a multiwell plate is placed 1.4 ml of media mix containing Diamond's TPS medium (see Table 2) at pH 7.05, 10% by volume of heat-inactivated fetal bovine serum, and 1% by volume of an antibiotic-antimycotic solution (see Table 3). A suspension of Giardia lamblia is centrifuged at 2,500 xg. for 6 minutes. The cells are resuspended in a small volume of the Diamond's medium, counted, and each well inoculated with approximately 10^6 organisms. A stock solution of fluorouracil is made at a concentration of 150 μg/ml. The wells are then inoculated with various concentrations of the drug. The plates are incubated for 24 hours at 37° C. in an anaerobic Gas Pak jar. After 24 hours of incubation each well is mixed and counted for viable organisms using a hemacytometer. The percentage of survival is determined by comparing the treated wells to controls treated with dimethylsulfoxide. […]

Giardia lamblia [1] = experiment: In vitro anti-Giardia lamblia activity (viable organisms counted by hemacytometer, 50% inhibition of growth); format: cell-based; conditions: Giardia duodenalis, read-out: Anti-G. lamblia ED50
Experimental: as §1, with “The percentage of survival is determined by comparison with controls inoculated with DMSO (dimethylsulfoxide) and the effective concentration (in parts per million) for 50% inhibition of growth (ED50) is determined. It is established that the lower the number of the value of ED50, the higher the activity of the active compound.” left out
as §2, with “A suspension of Giardia lamblia is centrifuged at 2,500 xg. for 6 minutes.” left out, “A stock solution of fluorouracil is made at a concentration of 150 μg/ml. The wells are then inoculated with various concentrations of the drug. The plates are incubated for 24 hours at 37° C. in an anaerobic Gas Pak jar.” left out

T. vaginalis = experiment: Anti-T. vaginalis activity; format: cell-based, Trichomonas vaginalis; conditions: procedure of Example 2; refers to Table 1
Giardia lamblia [2] = conditions: humans; background, The New York Times, June 10, 1980; cited from earlier work
[3] = cited from earlier work

With `[O-][n+]1ccnc(O)c1` [emimycin, 2-hydroxypyrazine-4-oxide] the IC50 (T. foetus; in vitro, 50% inhibition of growth, T. foetus KV1 in Example 2, 37° C., 24 hours) was < 1 µg/mL, the IC50 (Giardia lamblia [1]; in vitro, effective concentration for 50% inhibition of growth, about 10^6 organisms per well, 37° C., anaerobic, 16-24 hrs (Example 1: 24 hours), controls with DMSO) was 22 µg/mL (≈ 196 µM) and the “anti-T. vaginalis activity (in words)” value (T. vaginalis) was “active anti-T. vaginalis agents”.
In the case of `O=C1OCCN1N=Cc1ccc([N+](=O)[O-])o1` [furazolidione], the “treatment of giardiasis infection” value (Giardia lamblia [2]) is listed as “successfully treated” and the adverse side effects ([3]; humans, background, The New York Times, June 10, 1980) is listed as “known to cause adverse side effects”.
For `Cc1ncc([N+](=O)[O-])n1CCO` [Flagyl, metronidazole], the “treatment of giardiasis infection” value (Giardia lamblia [2]) is given as “successfully treated” and the adverse side effects ([3]; in vivo) is given as “known to cause adverse side effects”.
With `O=c1[nH]cc(F)c(=O)[nH]1` [fluorouracil, 5-fluoro-2,4-(1H,3H)pyrimidenedione] the IC50 (T. foetus; 24 h) was 3 µg/mL (≈ 23.1 µM), the “anti-T. foetus activity (in words)” value (T. foetus; in vitro, T. foetus KV1, 37° C., 24 hours) was “effective anti-T. foetus agent” and the IC50 (Giardia lamblia [1]) was 100 µg/mL (≈ 769 µM).
In the case of `CCN(CC)CCCC(C)Nc1c2ccc(Cl)cc2nc2ccc(OC)cc12` (stereo not drawn) [Atabrine], the “treatment of giardiasis infection” value (Giardia lamblia [2]) is listed as “successfully treated” and the adverse side effects ([3]; in vivo) is listed as “known to cause adverse side effects”.
